According to patent publication US10954252B1, “Inhibitors of human immunodeficiency virus replication” (ViiV HEALTHCARE UK (NO.5) LIMITED, priority 2017, dated 2021):

Key:
[1] = Stereoisomer interconversion on storage in MeOH at ambient condition; assay type: physicochemical; conditions: stored in MeOH at ambient condition
[2] = test system: recombinant NL4-3 virus (nef section replaced with Renilla luciferase gene) in MT-2 cells; experiment: HIV cell culture assay (antiviral activity, luciferase readout); assay type: cell-based; conditions: Renilla, NL43, Table 1; MT-2 cells infected for 4-5 days with recombinant NL4-3 luciferase virus
Procedure, shortened: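 Serially diluted compounds were present throughout a 4-5 day infection of MT-2 cells by recombinant NL4-3 whose nef region partly encodes Renilla luciferase. Antiviral activity was taken from live-cell luciferase signal, with the 50% effective concentration fitted by the exponential median effect equation.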

[3] = Compound cytotoxicity, XTT-based colorimetric assay; assay type: cell-based; conditions: human, uninfected MT2 cells, Table 1, day 4, XTT
Procedure, shortened: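 XTT colorimetric read-out on day 4 gave CC50 values, using MT2 cells left uninfected but otherwise handled as in the antiviral assay.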

| SMILES | conversion to another stereoisomer on storage [1] | EC50 [2] [nM] | CC50 at 4 days [3] [nM] |
| --- | --- | --- | --- |
| Cn1nc(NS(C)(=O)=O)c2c(Cl)ccc(-n3c(C(Cc4cc(F)cc(F)c4)NC(=O)Cn4nc(C(F)F)c5c4C(F)(F)[C@@H]4C[C@H]54)nc4nc(C(F)(F)F)ccc4c3=O)c21 (mixture of isomers) [Example 11.1, N—((S)-1-(3-(4-chloro-1-methyl-3-(methylsulfonamido)-1H-indazol-7-yl)-4-oxo-7-(trifluoromethyl)-3,4-dihydropyrido[2,3-d]pyrimidin-2-yl)-2-(3,5-difluorophenyl)ethyl)-2-((3bS,4aR)-3-(difluoromethyl)-5,5-difluoro-3b,4,4a,5-tetrahydro-1H-cyclopropa[3,4]cyclopenta[1,2-c]pyrazol-1-yl)acetamide] | one of the isomers in Example 11.1 converts to Example 11.2 | 520 | > 10000 |
| Cn1nc(NS(C)(=O)=O)c2c(Cl)ccc(-n3c([C@H](Cc4cc(F)cc(F)c4)NC(=O)Cn4nc(C(F)F)c5c4C(F)(F)C4CC54)nc4nc(C(F)(F)F)ccc4c3=O)c21 (stereo in doubt) [Example 11.2, N—((S)-1-(3-(4-chloro-1-methyl-3-(methylsulfonamido)-1H-indazol-7-yl)-4-oxo-7-(trifluoromethyl)-3,4-dihydropyrido[2,3-d]pyrimidin-2-yl)-2-(3,5-difluorophenyl)ethyl)-2-((3bS,4aR)-3-(difluoromethyl)-5,5-difluoro-3b,4,4a,5-tetrahydro-1H-cyclopropa[3,4]cyclopenta[1,2-c]pyrazol-1-yl)acetamide] | converts slowly to one of the isomers in Example 11.1 | 51 | > 10000 |
| Cn1nc(NS(C)(=O)=O)c2c(Cl)ccc(-n3c([C@H](Cc4cc(F)cc(F)c4)NC(=O)Cn4nc(C(F)F)c5c4C(F)(F)C4CC54)nc4nc(Cl)ccc4c3=O)c21 (stereo in doubt) [Example 12.2, N—((S)-1-(7-chloro-3-(4-chloro-1-methyl-3-(methylsulfonamido)-1H-indazol-7-yl)-4-oxo-3,4-dihydropyrido[2,3-d]pyrimidin-2-yl)-2-(3,5-difluorophenyl)ethyl)-2-((3bS,4aR)-3-(difluoromethyl)-5,5-difluoro-3b,4,4a,5-tetrahydro-1H-cyclopropa[3,4]cyclopenta[1,2-c]pyrazol-1-yl)acetamide] | converts slowly to one of the stereoisomers in Example 12.1 | 42 | > 3300 |
